In the oligonucleotide strings, read from the 5' end, every base follows the letter of its sugar. An asterisk marks phosphorothioate; unmarked linkages are phosphodiester. Other units and linkages are bracketed, terminal groups are in braces. A string of capitals states the bases alone. e = 2'-O-(2-methoxyethyl) (MOE); [5mC] = 5-methylcytosine; d = 2'-deoxy (DNA)
Test system: human Factor 7 mRNA
Assay: Antisense inhibition of human Factor 7 mRNA in HepB3 cells, lipofectin, 50 nM, real-time RT-PCR
Type: cell-based
Details: Example 1; HepB3 cells, lipofectin, 50 nM, ~24 h, relative to untreated control cells
In short: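 HepB3 cells were transfected by lipofectin with 50 nM antisense oligonucleotide and harvested after about 24 h. Factor 7 mRNA was measured by real-time RT-PCR (primer probe set RTS 2927 in some runs), normalized to RIBOGREEN total RNA, and reported as percent inhibition versus untreated control.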

Going from “407898 (antisense e[5mC]*e[5mC]*eA*eG*e[5mC]*dA*dG*dA*dG*dA*dG*dT*dA*d[5mC]*d[5mC]*e[5mC]*e[5mC]*eT*e[5mC]*eG) [compound 407898]” to “407950 (antisense eA*eG*e[5mC]*eT*eT*d[5mC]*d[5mC]*dA*dT*dG*dT*dG*dA*dG*dG*eG*eT*eT*e[5mC]*eA) [compound 407950]”, the “% Inhibition (human Factor 7 mRNA)” value rises from 49% to 58%.

Going from “407946 (antisense eT*e[5mC]*e[5mC]*eA*eA*dA*dA*dA*dT*dG*dA*dA*dT*d[5mC]*dA*eT*eG*eG*eG*e[5mC]) [compound 407946]” to “407917 (antisense eA*e[5mC]*eA*e[5mC]*e[5mC]*d[5mC]*d[5mC]*dA*dA*dA*dG*dT*dG*dG*d[5mC]*e[5mC]*e[5mC]*eA*e[5mC]*eG) [compound 407917]”, the “% Inhibition (human Factor 7 mRNA)” value rises from 5% to 70%.

Going from “407913 (antisense eG*eA*eT*eG*e[5mC]*d[5mC]*d[5mC]*dG*dT*d[5mC]*dA*dG*dG*dT*dA*e[5mC]*e[5mC]*eA*e[5mC]*eG) [compound 407913]” to “407647 (antisense eG*e[5mC]*eA*eG*e[5mC]*d[5mC]*dG*dT*dT*dT*dA*dT*dT*dG*dT*eG*eA*eA*eG*e[5mC]) [compound 407647]”, the “% Inhibition (human Factor 7 mRNA)” value rises from 74% to 83%.

First: 407596 (antisense eG*eA*eG*eG*e[5mC]*d[5mC]*d[5mC]*d[5mC]*dG*dG*d[5mC]*dT*dT*d[5mC]*d[5mC]*eA*e[5mC]*eG*eG*e[5mC]) [compound 407596]
Second: 407891 (antisense e[5mC]*eA*eT*eG*eG*dA*d[5mC]*dT*dT*dG*dA*dG*dG*d[5mC]*dA*e[5mC]*eA*e[5mC]*eT*eG) [compound 407891]
The “% Inhibition (human Factor 7 mRNA)” value of the first is lower: 61% for the first, 66% for the second.

Going from “407940 (antisense eT*eG*eT*eG*eA*dA*dG*d[5mC]*dT*dG*dG*dG*dA*dA*dG*e[5mC]*eA*eG*eG*eT) [compound 407940]” to “407619 (antisense eA*eG*eA*eA*eT*dA*dG*dG*dT*dA*dT*dT*dT*dT*dT*e[5mC]*e[5mC]*eA*e[5mC]*eA) [compound 407619]”, the “% Inhibition (human Factor 7 mRNA)” value rises from 62% to 64%.

Compared with “407919 (antisense eT*e[5mC]*eG*eA*eT*dG*dT*dA*d[5mC]*dT*dG*dG*dG*dA*dG*eA*e[5mC]*e[5mC]*e[5mC]*eT) [compound 407919]”, “407645 (antisense eG*eA*eG*eA*eG*d[5mC]*dT*dA*dA*dA*d[5mC]*dA*dA*d[5mC]*d[5mC]*eG*e[5mC]*e[5mC]*eT*eT) [compound 407645]” is lower in “% Inhibition (human Factor 7 mRNA)” value: 84% for the first, 65% for the second.

First: 407595 (antisense eT*e[5mC]*e[5mC]*eT*eG*dA*dG*dG*d[5mC]*d[5mC]*dT*dT*dA*dG*d[5mC]*eG*eA*e[5mC]*e[5mC]*e[5mC]) [compound 407595]
Second: 403090 (antisense eA*eG*eT*e[5mC]*e[5mC]*dT*dG*dG*dG*dT*d[5mC]*dA*dT*d[5mC]*dA*eG*e[5mC]*e[5mC]*eG*eG) [compound 403090]
The “% Inhibition (human Factor 7 mRNA)” value of the first is higher: 71% for the first, 69% for the second.

Going from “407623 (antisense eT*e[5mC]*e[5mC]*eA*eT*dT*d[5mC]*dA*d[5mC]*d[5mC]*dA*dA*d[5mC]*dA*dA*e[5mC]*eA*eG*eG*eA) [compound 407623]” to “407636 (antisense eG*e[5mC]*eA*eG*e[5mC]*d[5mC]*d[5mC]*dT*dG*dG*d[5mC]*d[5mC]*d[5mC]*d[5mC]*dA*eG*e[5mC]*eT*eG*eA) [compound 407636]”, the “% Inhibition (human Factor 7 mRNA)” value rises from 69% to 75%.

For “407635 (antisense eT*eG*eG*e[5mC]*e[5mC]*d[5mC]*d[5mC]*dA*dG*d[5mC]*dT*dG*dA*d[5mC]*dG*eA*eT*eG*e[5mC]*e[5mC]) [compound 407635]”, the “% Inhibition (human Factor 7 mRNA)” value was 64%.

Same assay, conditions: Example 4; HepB3 cells, lipofectin, 50 nM, ~24 h, relative to untreated control

First: 422266 (antisense e[5mC]*eG*d[5mC]*dG*dG*dA*dA*dG*dA*dA*dG*dG*dG*dA*d[5mC]*eG*eG*eA*eA*eG) [compound 422266]
Second: 422274 (antisense eT*eT*dA*d[5mC]*dT*dG*dA*dG*d[5mC]*dG*d[5mC]*dG*dG*dA*dA*eG*eA*eA*eG*eG) [compound 422274]
The “% Inhibition (human Factor 7 mRNA)” value of the first is lower: 13% for the first, 24% for the second.

“422128 (antisense eT*eT*eA*e[5mC]*eT*dG*dA*dG*d[5mC]*dG*d[5mC]*dG*dG*dA*dA*eG*eA*eA*eG*eG) [compound 422128]” was tested, and the “% Inhibition (human Factor 7 mRNA)” value was 27%.

Same assay, conditions: Example 6 microwalk, nucleobases 15098 to 15122 of SEQ ID NO: 1; HepB3, lipofectin, 50 nM, ~24 h

For “422134 (antisense eG*e[5mC]*eA*e[5mC]*eA*d[5mC]*dA*dT*dG*dG*dA*dG*dT*d[5mC]*dA*eG*e[5mC]*eA*eT*e[5mC]) [compound 422134]”, the “% Inhibition (human Factor 7 mRNA)” value was 67%.

Same assay, conditions: HepB3 cells, lipofectin, 50 nM antisense oligonucleotide, approximately 24 hours, primer probe set RTS 2927, relative to untreated control

First: 416432 (antisense eA*eG*e[5mC]*eA*e[5mC]*dT*dG*d[5mC]*dT*d[5mC]*d[5mC]*dT*d[5mC]*d[5mC]*dT*eT*eG*e[5mC]*eA*e[5mC]) [compound 416432]
Second: 416495 (antisense eT*e[5mC]*eT*eA*eG*dA*dA*dT*dT*d[5mC]*d[5mC]*dA*dA*dA*d[5mC]*e[5mC]*e[5mC]*e[5mC]*eT*eA) [compound 416495]
The “% Inhibition of human Factor 7 mRNA levels” value of the first is higher: 44% for the first, 0% for the second.

First: 416568 (antisense e[5mC]*eA*eT*eT*eG*dT*dG*d[5mC]*d[5mC]*dT*dG*dG*d[5mC]*dA*d[5mC]*eA*e[5mC]*eA*eG*eG) [compound 416568]
Second: 416496 (antisense e[5mC]*eA*eA*e[5mC]*eA*d[5mC]*dT*dT*d[5mC]*dA*dA*dA*dT*dA*d[5mC]*eG*eA*eT*e[5mC]*eT) [compound 416496]
The “% Inhibition of human Factor 7 mRNA levels” value of the first is higher: 14% for the first, 0% for the second.

Compared with “416488 (antisense e[5mC]*eA*eG*eG*eT*d[5mC]*d[5mC]*dT*d[5mC]*d[5mC]*d[5mC]*dA*d[5mC]*dT*dG*e[5mC]*eA*eG*e[5mC]*e[5mC]) [compound 416488]”, “416463 (antisense eT*eG*e[5mC]*eT*eG*d[5mC]*dA*dG*dG*d[5mC]*dA*dG*dT*d[5mC]*d[5mC]*eT*eG*eG*eG*eT) [compound 416463]” is lower in “% Inhibition of human Factor 7 mRNA levels” value: 41% for the first, 39% for the second.

First: 416513 (antisense e[5mC]*eT*eG*eA*eT*dG*dT*dG*dA*dA*dA*dA*d[5mC]*d[5mC]*dG*eG*e[5mC]*eA*eT*eG) [compound 416513]
Second: 416555 (antisense eA*eA*eA*eG*eA*dT*d[5mC]*dA*dG*dG*d[5mC]*dA*dA*dA*dG*eA*eT*e[5mC]*e[5mC]*e[5mC]) [compound 416555]
The “% Inhibition of human Factor 7 mRNA levels” value of the first is higher: 37% for the first, 6% for the second.

Same assay, conditions: HepB3 cells; gapmers (5-10-5, 3-14-3, 2-13-5 MOE) targeted to nucleobases 4868 to 4899 of SEQ ID NO: 1

First: 422299 (antisense eA*eG*d[5mC]*d[5mC]*d[5mC]*dG*dA*dG*dT*dT*d[5mC]*dT*dG*d[5mC]*dA*eG*eG*eA*eG*e[5mC]) [compound 422299]
Second: 422220 (antisense e[5mC]*e[5mC]*e[5mC]*dG*dA*dG*dT*dT*d[5mC]*dT*dG*d[5mC]*dA*dG*dG*dA*dG*e[5mC]*eG*eG) [compound 422220]
The “% Inhibition of human Factor 7 mRNA levels” value of the first is higher: 64% for the first, 59% for the second.

With “422147 (antisense eG*eA*eG*e[5mC]*e[5mC]*d[5mC]*dG*dA*dG*dT*dT*d[5mC]*dT*dG*d[5mC]*eA*eG*eG*eA*eG) [compound 422147]” the “% Inhibition of human Factor 7 mRNA levels” value was 64%.

Same assay, conditions: HepB3 cells; gapmers targeted to nucleobases 11830 to 11869 of SEQ ID NO: 1 (Table 9)

First: 422158 (antisense eA*eT*eG*dG*dT*d[5mC]*dA*dG*dG*dG*d[5mC]*dT*dG*dG*dT*dT*dT*eT*eG*eG) [compound 422158]
Second: 422250 (antisense e[5mC]*eT*dG*dG*d[5mC]*dT*dG*dA*dG*dG*dA*dG*dA*d[5mC]*dA*eA*eT*eG*eG*eT) [compound 422250]
The “% Inhibition of human Factor 7 mRNA levels” value of the first is lower: 49% for the first, 54% for the second.

First: 422235 (antisense eA*eT*dG*dG*dT*d[5mC]*dA*dG*dG*dG*d[5mC]*dT*dG*dG*dT*eT*eT*eT*eG*eG) [compound 422235]
Second: 422170 (antisense eG*e[5mC]*eT*dG*dA*dG*dG*dA*dG*dA*d[5mC]*dA*dA*dT*dG*dG*dT*e[5mC]*eA*eG) [compound 422170]
The “% Inhibition of human Factor 7 mRNA levels” value of the first is higher: 50% for the first, 28% for the second.

Same assay, conditions: HepB3 cells; gapmers targeted to nucleobases 13760 to 13789 of SEQ ID NO: 1 (Table 10)

In the case of “422112 (antisense e[5mC]*e[5mC]*eA*e[5mC]*e[5mC]*d[5mC]*dG*d[5mC]*d[5mC]*dG*dG*d[5mC]*dT*d[5mC]*dT*eG*e[5mC]*eT*e[5mC]*eA) [compound 422112]”, the “% Inhibition of human Factor 7 mRNA levels” value is reported as 61%.

Same assay, conditions: HepB3 cells; gapmers targeted to nucleobases 14707 to 14732 of SEQ ID NO: 1 (Table 11)

Compared with “422131 (antisense eA*eG*e[5mC]*e[5mC]*eT*dG*dA*dG*dG*d[5mC]*d[5mC]*dA*dG*d[5mC]*dA*eG*eA*eT*e[5mC]*eA) [compound 422131]”, “422204 (antisense eG*e[5mC]*eA*dG*d[5mC]*d[5mC]*dT*dG*dA*dG*dG*d[5mC]*d[5mC]*dA*dG*d[5mC]*dA*eG*eA*eT) [compound 422204]” is higher in “% Inhibition of human Factor 7 mRNA levels” value: 68% for the first, 72% for the second.

Same assay, conditions: HepB3 cells; gapmers targeted to nucleobases 15188 to 15211 of SEQ ID NO: 1 (Table 13)

With “422153 (antisense e[5mC]*eA*eT*dG*d[5mC]*dA*dT*dG*dG*dT*dG*dA*dT*dG*d[5mC]*dT*dT*e[5mC]*eT*eG) [compound 422153]” the “% Inhibition of human Factor 7 mRNA levels” value was 67%.
